Test results published in ChEMBL document CHEMBL5465560, “Selectivity Literature for EUbOPEN Chemogenomic Library” (2024).

Legend:
[1] = target: T1, Dual specificity mitogen-activated protein kinase kinase 4 (Homo sapiens) (UniProt P45985); assay: Selectivity interaction (Upstate Kinase Profiler service (Millipore)) EUB0000056c MAP2K4; conditions: at 1 µM
T1 sequence (whole entry): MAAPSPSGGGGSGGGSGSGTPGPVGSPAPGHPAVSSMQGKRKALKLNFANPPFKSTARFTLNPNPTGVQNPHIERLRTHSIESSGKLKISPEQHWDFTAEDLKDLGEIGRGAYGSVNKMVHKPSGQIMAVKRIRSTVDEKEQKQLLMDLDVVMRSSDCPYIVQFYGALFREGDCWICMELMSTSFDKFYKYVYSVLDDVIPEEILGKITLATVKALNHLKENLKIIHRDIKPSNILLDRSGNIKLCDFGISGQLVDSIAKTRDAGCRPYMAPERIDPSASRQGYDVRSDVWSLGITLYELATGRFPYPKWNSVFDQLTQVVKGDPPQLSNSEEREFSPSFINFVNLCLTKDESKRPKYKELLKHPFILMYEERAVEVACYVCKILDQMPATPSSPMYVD

[2] = target: Cyclin-dependent kinase 17 (Homo sapiens) (UniProt Q00537); assay: Selectivity interaction (KinomeScan (DiscoverX)) EUB0000655a CDK17; conditions: at 10 µM
[3] = target: Protein-tyrosine kinase 2-beta (Homo sapiens) (UniProt Q14289); assay: Selectivity interaction (ProQinase) EUB0000171b PTK2B
[4] = target: T2, Serine/threonine-protein kinase DCLK3 (Homo sapiens) (UniProt Q9C098); assay: Selectivity interaction (KinomeScan (DiscoverX)) EUB0000666a DCLK3; conditions: at 10 µM
T2 sequence (whole entry): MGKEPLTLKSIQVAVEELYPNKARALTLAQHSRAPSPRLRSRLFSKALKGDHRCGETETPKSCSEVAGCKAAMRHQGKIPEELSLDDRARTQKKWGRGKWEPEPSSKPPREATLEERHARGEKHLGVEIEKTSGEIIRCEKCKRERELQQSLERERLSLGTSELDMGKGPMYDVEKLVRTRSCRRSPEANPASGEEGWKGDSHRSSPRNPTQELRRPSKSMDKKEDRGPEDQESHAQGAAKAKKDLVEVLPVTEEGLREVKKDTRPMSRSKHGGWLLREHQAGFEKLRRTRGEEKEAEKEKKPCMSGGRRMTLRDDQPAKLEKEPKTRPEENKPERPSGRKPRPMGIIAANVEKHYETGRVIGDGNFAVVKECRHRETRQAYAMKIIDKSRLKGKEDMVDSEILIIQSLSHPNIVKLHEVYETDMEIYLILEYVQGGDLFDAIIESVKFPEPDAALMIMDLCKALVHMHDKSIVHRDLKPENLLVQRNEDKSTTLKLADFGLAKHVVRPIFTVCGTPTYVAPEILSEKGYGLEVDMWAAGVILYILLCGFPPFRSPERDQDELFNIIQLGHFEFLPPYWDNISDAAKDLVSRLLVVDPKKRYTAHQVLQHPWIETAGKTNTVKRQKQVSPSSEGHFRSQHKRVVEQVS

[5] = target: Phosphatidylinositol 4,5-bisphosphate 3-kinase catalytic subunit gamma isoform (Homo sapiens) (UniProt P48736); assay: Selectivity interaction (KinomeScan (DiscoverX)) EUB0000595a PIK3CG; conditions: at 10 µM
[6] = target: Tyrosine-protein kinase ABL1 (Homo sapiens, UniProt P00519); assay: Selectivity interaction (KinomeScan (DiscoverX)) EUB0000045b ABL1; conditions: at 1 µM
[7] = target: T3, Dual specificity mitogen-activated protein kinase kinase 3 (Homo sapiens) (UniProt P46734); assay: Selectivity interaction (KinomeScan (DiscoverX)) EUB0001619a MAP2K3; conditions: at 1 µM
T3 sequence (whole entry): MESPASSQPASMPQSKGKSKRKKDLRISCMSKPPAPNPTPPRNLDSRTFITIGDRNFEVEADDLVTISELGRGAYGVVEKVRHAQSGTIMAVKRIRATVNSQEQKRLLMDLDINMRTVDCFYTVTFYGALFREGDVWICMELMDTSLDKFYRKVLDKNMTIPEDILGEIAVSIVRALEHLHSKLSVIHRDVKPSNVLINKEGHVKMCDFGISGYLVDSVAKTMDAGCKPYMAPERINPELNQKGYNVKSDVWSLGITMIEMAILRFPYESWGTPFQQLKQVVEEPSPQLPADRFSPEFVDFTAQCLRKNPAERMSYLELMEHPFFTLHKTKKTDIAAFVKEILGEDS

[8] = target: T4, Serine/threonine-protein kinase LATS1 (Homo sapiens) (UniProt O95835); assay: Selectivity interaction (ActivX KiNativ screen (ex vivo kinase selectivity in human PBMCs)) EUB0001619a LATS1; format: cell-based; conditions: PBMC, at 1 µM
T4 sequence (whole entry): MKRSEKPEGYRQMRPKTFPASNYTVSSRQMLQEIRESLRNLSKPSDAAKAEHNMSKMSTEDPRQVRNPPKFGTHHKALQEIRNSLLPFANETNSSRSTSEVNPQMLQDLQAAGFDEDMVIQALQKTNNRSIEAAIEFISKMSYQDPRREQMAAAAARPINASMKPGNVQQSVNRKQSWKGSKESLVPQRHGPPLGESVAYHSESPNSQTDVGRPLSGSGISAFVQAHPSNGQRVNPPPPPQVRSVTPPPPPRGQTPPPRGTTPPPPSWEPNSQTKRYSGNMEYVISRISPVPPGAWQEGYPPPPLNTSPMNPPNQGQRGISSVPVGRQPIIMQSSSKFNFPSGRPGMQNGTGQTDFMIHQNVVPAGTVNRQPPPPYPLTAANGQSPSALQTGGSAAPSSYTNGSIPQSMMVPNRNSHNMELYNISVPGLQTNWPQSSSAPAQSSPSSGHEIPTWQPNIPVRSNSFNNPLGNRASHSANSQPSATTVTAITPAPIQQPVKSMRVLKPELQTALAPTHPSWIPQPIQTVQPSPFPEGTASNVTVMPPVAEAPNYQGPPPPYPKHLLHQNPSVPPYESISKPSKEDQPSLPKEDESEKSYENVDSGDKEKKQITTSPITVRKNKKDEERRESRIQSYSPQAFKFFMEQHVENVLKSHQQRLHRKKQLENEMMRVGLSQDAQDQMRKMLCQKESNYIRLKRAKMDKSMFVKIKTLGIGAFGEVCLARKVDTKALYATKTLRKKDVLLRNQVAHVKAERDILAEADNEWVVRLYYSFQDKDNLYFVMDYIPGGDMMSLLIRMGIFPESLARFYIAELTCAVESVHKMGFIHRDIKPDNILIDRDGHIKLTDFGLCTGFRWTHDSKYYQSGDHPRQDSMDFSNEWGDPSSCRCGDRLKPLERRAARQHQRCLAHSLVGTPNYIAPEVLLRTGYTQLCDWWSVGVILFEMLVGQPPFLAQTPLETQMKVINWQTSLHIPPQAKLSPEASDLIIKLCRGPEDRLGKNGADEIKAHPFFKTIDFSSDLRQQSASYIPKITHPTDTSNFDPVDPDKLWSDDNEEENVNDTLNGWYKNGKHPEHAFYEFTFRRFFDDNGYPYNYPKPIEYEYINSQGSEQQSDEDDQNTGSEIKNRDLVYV

Sequence of Protein-tyrosine kinase 2-beta (Homo sapiens) (Q14289 whole entry, looked up): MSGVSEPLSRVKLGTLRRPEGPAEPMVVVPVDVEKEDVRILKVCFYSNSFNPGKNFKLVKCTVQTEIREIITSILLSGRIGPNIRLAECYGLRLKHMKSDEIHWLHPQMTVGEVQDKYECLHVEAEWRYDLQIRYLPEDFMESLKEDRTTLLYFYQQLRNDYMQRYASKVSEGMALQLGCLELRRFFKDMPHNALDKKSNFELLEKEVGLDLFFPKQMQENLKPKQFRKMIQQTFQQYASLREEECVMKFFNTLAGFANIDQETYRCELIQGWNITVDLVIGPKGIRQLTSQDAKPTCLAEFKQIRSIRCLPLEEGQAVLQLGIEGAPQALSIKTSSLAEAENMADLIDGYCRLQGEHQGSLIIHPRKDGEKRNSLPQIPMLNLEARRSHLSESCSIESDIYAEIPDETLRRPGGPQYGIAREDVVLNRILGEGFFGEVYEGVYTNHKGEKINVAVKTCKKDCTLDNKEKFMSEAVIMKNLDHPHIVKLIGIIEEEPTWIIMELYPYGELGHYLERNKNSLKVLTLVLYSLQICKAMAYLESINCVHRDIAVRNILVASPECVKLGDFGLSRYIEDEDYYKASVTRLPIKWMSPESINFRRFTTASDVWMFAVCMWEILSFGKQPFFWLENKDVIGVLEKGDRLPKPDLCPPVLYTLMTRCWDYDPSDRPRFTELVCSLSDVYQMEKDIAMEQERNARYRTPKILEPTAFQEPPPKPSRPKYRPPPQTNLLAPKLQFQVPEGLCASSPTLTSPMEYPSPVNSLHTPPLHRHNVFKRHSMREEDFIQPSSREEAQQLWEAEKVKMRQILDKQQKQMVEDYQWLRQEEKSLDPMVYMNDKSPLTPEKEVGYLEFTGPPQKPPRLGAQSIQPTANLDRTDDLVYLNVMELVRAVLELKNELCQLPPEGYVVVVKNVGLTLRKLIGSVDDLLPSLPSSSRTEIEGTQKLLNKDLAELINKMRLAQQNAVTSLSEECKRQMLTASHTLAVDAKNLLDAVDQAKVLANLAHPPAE
Sequence of Cyclin-dependent kinase 17 (Homo sapiens) (Q00537 whole entry, looked up): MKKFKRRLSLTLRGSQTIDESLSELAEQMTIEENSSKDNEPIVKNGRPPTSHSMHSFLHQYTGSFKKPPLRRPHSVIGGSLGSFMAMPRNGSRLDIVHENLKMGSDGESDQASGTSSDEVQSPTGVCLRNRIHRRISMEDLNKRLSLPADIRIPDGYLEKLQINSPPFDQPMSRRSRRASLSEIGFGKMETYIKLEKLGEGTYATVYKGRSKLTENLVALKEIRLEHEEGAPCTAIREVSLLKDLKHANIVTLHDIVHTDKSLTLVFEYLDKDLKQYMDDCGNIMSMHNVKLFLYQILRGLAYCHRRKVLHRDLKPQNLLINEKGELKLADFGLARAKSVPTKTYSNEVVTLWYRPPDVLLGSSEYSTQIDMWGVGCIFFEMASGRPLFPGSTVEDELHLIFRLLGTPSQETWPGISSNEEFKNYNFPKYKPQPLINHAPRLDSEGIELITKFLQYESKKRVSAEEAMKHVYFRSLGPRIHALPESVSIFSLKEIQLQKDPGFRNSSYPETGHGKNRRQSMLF
Sequence of Phosphatidylinositol 4,5-bisphosphate 3-kinase catalytic subunit gamma isoform (Homo sapiens) (P48736 whole entry, looked up, canonical isoform): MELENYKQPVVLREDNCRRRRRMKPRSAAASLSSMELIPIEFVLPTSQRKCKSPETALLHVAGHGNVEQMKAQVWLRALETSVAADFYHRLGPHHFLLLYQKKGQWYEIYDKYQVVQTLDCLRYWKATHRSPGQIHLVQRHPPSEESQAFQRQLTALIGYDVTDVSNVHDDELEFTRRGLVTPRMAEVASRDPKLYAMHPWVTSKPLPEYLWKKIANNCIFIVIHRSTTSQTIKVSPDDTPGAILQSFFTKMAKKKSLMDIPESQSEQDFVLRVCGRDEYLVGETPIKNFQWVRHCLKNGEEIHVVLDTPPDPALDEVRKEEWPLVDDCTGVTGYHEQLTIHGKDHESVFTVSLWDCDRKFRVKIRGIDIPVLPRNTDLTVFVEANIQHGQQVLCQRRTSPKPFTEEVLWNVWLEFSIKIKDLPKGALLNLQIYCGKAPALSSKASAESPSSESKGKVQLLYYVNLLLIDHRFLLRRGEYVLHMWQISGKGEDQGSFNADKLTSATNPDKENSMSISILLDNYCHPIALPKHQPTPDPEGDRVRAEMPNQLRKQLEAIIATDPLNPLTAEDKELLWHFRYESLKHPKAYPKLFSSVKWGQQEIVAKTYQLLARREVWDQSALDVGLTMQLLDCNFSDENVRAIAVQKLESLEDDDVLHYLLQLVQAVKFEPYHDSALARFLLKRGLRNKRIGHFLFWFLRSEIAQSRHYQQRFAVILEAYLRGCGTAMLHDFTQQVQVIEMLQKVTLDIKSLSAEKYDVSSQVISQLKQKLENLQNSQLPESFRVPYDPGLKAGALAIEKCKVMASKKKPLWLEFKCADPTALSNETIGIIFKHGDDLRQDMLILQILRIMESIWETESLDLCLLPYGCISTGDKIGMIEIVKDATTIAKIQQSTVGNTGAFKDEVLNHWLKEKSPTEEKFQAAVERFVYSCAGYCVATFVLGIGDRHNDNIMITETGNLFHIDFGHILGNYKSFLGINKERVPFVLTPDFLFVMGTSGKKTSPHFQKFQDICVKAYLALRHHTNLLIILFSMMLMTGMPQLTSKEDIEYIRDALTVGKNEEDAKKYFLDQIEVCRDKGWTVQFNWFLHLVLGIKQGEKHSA
Sequence of Tyrosine-protein kinase ABL1 (P00519 whole entry): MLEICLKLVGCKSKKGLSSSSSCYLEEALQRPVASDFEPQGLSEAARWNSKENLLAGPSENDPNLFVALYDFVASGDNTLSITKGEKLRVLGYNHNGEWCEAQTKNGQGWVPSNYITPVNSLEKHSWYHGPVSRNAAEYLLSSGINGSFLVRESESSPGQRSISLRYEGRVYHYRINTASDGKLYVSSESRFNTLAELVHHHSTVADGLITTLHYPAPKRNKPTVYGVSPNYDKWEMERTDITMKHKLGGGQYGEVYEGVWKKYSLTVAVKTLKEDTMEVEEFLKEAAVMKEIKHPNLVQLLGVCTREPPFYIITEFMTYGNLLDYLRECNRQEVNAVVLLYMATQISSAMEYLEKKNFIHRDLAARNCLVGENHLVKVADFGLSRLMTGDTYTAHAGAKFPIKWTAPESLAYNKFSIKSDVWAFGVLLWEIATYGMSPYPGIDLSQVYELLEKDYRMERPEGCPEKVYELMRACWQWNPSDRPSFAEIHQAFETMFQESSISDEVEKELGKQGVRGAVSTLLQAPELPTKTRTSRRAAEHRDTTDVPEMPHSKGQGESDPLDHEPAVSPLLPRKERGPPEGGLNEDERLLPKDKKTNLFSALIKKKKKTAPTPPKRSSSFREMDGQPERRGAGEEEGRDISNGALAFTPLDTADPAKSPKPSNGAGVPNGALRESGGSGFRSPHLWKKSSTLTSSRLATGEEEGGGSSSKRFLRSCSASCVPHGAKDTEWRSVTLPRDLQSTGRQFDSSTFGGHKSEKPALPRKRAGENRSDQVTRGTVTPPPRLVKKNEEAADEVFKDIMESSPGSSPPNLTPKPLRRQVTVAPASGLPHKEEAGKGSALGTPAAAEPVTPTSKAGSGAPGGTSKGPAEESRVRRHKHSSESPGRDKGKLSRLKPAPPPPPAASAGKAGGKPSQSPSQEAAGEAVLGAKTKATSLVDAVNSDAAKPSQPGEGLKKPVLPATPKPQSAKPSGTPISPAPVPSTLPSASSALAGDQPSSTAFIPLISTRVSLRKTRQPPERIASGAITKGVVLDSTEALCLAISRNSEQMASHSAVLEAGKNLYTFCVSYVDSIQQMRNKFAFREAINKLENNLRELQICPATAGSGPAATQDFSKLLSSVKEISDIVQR

Compound: Cc1ccc(-c2ccc3c(ccc4sc5c(c43)NC[C@@H](C)NC5=O)n2)cn1
- % of inhibition [1]: 19%

Compound: CN(C)CCOc1ccc(-c2nc(-c3ccncc3)c(-c3ccc4c(c3)CC/C4=N\O)[nH]2)cc1
- % of control [2]: 87%

Compound: C=CC(=O)Nc1cccc(C(=O)Nc2ccc(Nc3cc(-c4[nH]c(SC)nc4C)ccn3)cc2)c1
- % of control ([3]; at 1 µM): 91%
- % of control ([3]; at 5 µM): 96%

Compound: O=C(NOC[C@H](O)CO)c1ccc(F)c(F)c1Nc1ccc(I)cc1F
- % of control [4]: 100%

Compound: COCC(=O)NC/C=C/c1ccc2ncnc(Nc3ccc(Oc4ccc(C)nc4)c(C)c3)c2c1 [CP-724714]
- % of control [5]: 100%

Compound: C=CC(=O)Nc1cc(-n2c(=O)ccc3cnc4ccc(-c5ccc(NS(C)(=O)=O)cc5)cc4c32)ccc1C
- % of control [6]: 100%

Compound: N#Cc1cccc(-c2c[nH]c3ncnc(N4CCOCC4)c23)c1
- % of control [7]: 71%
- % of inhibition [8]: 5%
